Earlier results in patent publication US10376473B2, “Transdermal adhesive compositions, devices, and methods” (priority 2010, dated 2019).
Like-named read-outs stand apart in the source and are kept apart here.

Settings: after 2 months at 60° C.

For `CCN(C)C(=O)Oc1cccc([C@H](C)N(C)C)c1` [(S)—N-ethyl-3-[(1-dimethylamino)ethyl]-N-methylphenyl carbamate], the degradation products (composition with 0.1% tocopherol (antioxidant)) is given as 1.3% and the degradation products (composition without the antioxidant) is given as 4.46%.
